Reference: paper PMC7367873, “Dissecting the sequence determinants for dephosphorylation by the catalytic subunits of phosphatases PP1 and PP2A” (Nature Communications, 2020)

Legend:
[1] = tested on: GFP-14-3-3β and its binding proteins; assay: GFP-14-3-3β co-IP with LC-MS/MS label-free quantification, untreated versus PP1c-treated; parameters: species or system human
Protocol: (§1) HeLa Kyoto cells expressing transiently transfected pEGFP(C1)-14-3-3β or pEGFP(C1) control plasmid, were incubated with 20 nM Calyculin A (# 9902 S, Cell Signaling Technology) for 12 min. Cells were washed twice on ice with cold PBS and after addition of 500 µL lysis buffer (100 mM NaCl, 10 mM Tris, 0.1% IGEPAL, 1 mM EDTA, 1 mM EGTA, 20 nM Calyculin A, 1x cOmplete Mini protease inhibitor cocktail (Sigma), 1 mM DTT, 1 mM MnCl2) cells were scraped from plates, lysed by 10 pushes through an injection needle (21 G, BD) and the insoluble fraction was pelleted by centrifugation (10 min, 10^4 rcf, 4 °C). Supernatants were then subjected to incubation with 1 µM recombinant phosphatase or buffer for 1 h at 30 °C. Next, we subjected samples to immunoprecipitation using α-GFP nanobodies covalently coupled to agarose beads (2 h, 4 °C, obtained from the EMBL PEPcore Core Facility). Beads were then washed three times with lysis buffer and samples were eluted in 1x LDS sample buffer (Thermo Fisher Scientific) by heating to 70 °C for 10 min.
(§2) The samples were then reduced with 25 mM dithiothreitol (10 min at 70 °C) and alkylated with 55 mM chloroacetamide (room temperature, 30 min, in the dark). Proteins were run on a precast 4–12% NuPAGE gel (ThermoFisher Scientific) for about 1 cm to concentrate the sample prior to in-gel tryptic digestion, which was performed according to the standard procedures. The peptides obtained were dried to completeness and resuspended in 12 µL of buffer A (0.1% FA), and 5 µL of sample were injected per MS measurement. The experiment was carried out in three independent replicates.
(§3) The samples were analyzed by LC-MS/MS on a Dionex Ultimate 3000 nano-HPLC coupled online to a Fusion Lumos Tribrid mass spectrometer (Thermo Fisher Scientific). Peptides were delivered to a trap column (75 µm × 2 cm, packed in-house with 5 µm C18 resin; Reprosil PUR AQ, Dr. Maisch) and washed using 0.1% FA at a flow rate of 5 µL/min for 10 min. Subsequently, peptides were transferred to an analytical column (75 µm × 45 cm, packed in-house with 3 µm C18 resin; Reprosil Gold) applying a flow rate of 300 nL/min and separated using a 60 min linear gradient from 4% to 32% LC solvent B (0.1% FA, 5% DMSO in ACN) in LC solvent A (0.1% FA in 5% DMSO). The eluate from the analytical column was sprayed via a stainless steel emitter (Thermo Fisher Scientific) at a source voltage of 2.1 kV into the mass spectrometer. The transfer capillary was heated to 275 °C. The Fusion Lumos was operated in positive ionization mode and data-dependent acquisition (DDA), automatically switching between MS1 and MS2 spectrum acquisition. Full scan MS1 spectra were recorded in the Orbitrap from 360 to 1300 m/z at a resolution of 60k (automatic gain control (AGC) target value of 4e5 charges, maximum injection time (maxIT) of 50 ms). Up to 20 peptide precursors were isolated (isolation window, 1.7 m/z; maximum injection time, 25 ms; and AGC value, 1e5), fragmented by high-energy collision-induced dissociation (HCD) using 30% normalized collision energy (NCE), and analyzed at a resolution of 15k in the Orbitrap. Precursor ions that were singly charged, unassigned, or with charge states >6+ were excluded. The dynamic exclusion duration of fragmented precursor ions was 20 s.
(§4) Peptide and protein identification and LFQ were performed using MaxQuant software (version 1.6.1.0)[64] by searching the data against all canonical protein sequences as annotated in the Swissprot reference database (human proteins only, 20193 entries, downloaded 22 March 2016, internally annotated with PFAM domains) using the embedded search engine Andromeda[65]. The MaxQuant search was performed using two variable modifications; oxidation of methionine and N-terminal protein acetylation. Carbamidomethylation on cysteines was specified as a fixed modification. Trypsin (Trypsin/P) was specified as the proteolytic enzyme with up to two allowed missed cleavage sites.

GFP-14-3-3β = GFP-14-3-3β co-IP with LC-MS/MS, untreated GFP-14-3-3β versus GFP control (14-3-3 interactome); assay type: binding, human
Protocol: as §1, §2, §3, §4

[2] = PP1 vs untreated, LFQ intensities, replicates 1-3
[3] = untreated vs GFP, LFQ intensities, replicates 1-3
[4] = pairwise comparison PP1 vs untreated, student's t-test, 3 replicates each, LC-MS/MS label-free quantification
[5] = pairwise comparison untreated GFP-14-3-3β vs GFP, student's t-test, 3 replicates each, LC-MS/MS label-free quantification
[6] = GFP-14-3-3β co-IP LC-MS/MS, PP1 vs untreated, student's t-test, label-free quantification, 3 replicates each
[7] = GFP-14-3-3β co-IP LC-MS/MS, untreated vs GFP, student's t-test, label-free quantification, 3 replicates each
[8] = PP1 vs untreated, LFQ intensities, 3 replicates each
[9] = untreated vs GFP, LFQ intensities, 3 replicates each
[10] = log2 difference, pairwise comparison PP1 vs untreated, label-free quantification, 3 replicates each
[11] = log2 difference, pairwise comparison untreated vs GFP, label-free quantification, 3 replicates each
[12] = pairwise comparison PP1 vs untreated
[13] = pairwise comparison untreated vs GFP

MLEC
Difference (log2), PP1 vs untreated [1, 2]: -1.535 log2
Difference (log2), untreated vs GFP (GFP-14-3-3β; [3]): 0.8854 log2

YWHAG
Difference (log2), PP1 vs untreated [1, 2]: -1.2523 log2
Difference (log2), untreated vs GFP (GFP-14-3-3β; [3]): 8.569 log2

MARK1
Difference (log2), PP1 vs untreated [1, 4]: -2.037 log2
Difference (log2), untreated vs GFP (GFP-14-3-3β; [5]): 5.5786 log2

VPS13D
Difference (log2), PP1 vs untreated [1, 4]: -2.609 log2
Difference (log2), untreated vs GFP (GFP-14-3-3β; [5]): 3.223 log2

EFTUD2
Difference (log2), PP1 vs untreated [1, 6]: -0.7202 log2
Difference (log2), untreated vs GFP (GFP-14-3-3β; [7]): 2.59 log2

YWHAZ
Difference (log2), PP1 vs untreated [1, 2]: -1.298 log2
Difference (log2), untreated vs GFP (GFP-14-3-3β; [3]): 6.453 log2

PPIB
Difference (log2), PP1 vs untreated [1, 8]: 0.6708 log2
Difference (log2), untreated vs GFP (GFP-14-3-3β; [9]): 0.09722 log2

PFKP
Difference (log2), PP1 vs untreated [1, 10]: 1.388
Difference (log2), untreated vs GFP (GFP-14-3-3β; [11]): -0.1859

YAP1
Difference (log2), PP1 vs untreated [1, 4]: -2.787 log2
Difference (log2), untreated vs GFP (GFP-14-3-3β; [5]): 8.338 log2

KHDRBS1
Difference (log2), PP1 vs untreated [1, 2]: -0.7597 log2
Difference (log2), untreated vs GFP (GFP-14-3-3β; [3]): -0.7979 log2

TUBA1B
Difference (log2), PP1 vs untreated [1, 12]: 0.07589 log2
Difference (log2), untreated vs GFP (GFP-14-3-3β; [13]): -0.8319 log2

RFC5
Difference (log2), PP1 vs untreated [1, 10]: 1.3455
Difference (log2), untreated vs GFP (GFP-14-3-3β; [11]): -0.3031

DSP
Difference (log2), PP1 vs untreated [1, 10]: 4.203
Difference (log2), untreated vs GFP (GFP-14-3-3β; [11]): -0.252

DPYSL3;CRMP1
Difference (log2), PP1 vs untreated [1, 10]: 2.547
Difference (log2), untreated vs GFP (GFP-14-3-3β; [11]): -3.981

FASN
Difference (log2), PP1 vs untreated [1, 8]: 0.3561 log2
Difference (log2), untreated vs GFP (GFP-14-3-3β; [9]): 1.462 log2

FXR1
Difference (log2), PP1 vs untreated [1, 10]: 2.4595
Difference (log2), untreated vs GFP (GFP-14-3-3β; [11]): -1.238

TAF15
Difference (log2), PP1 vs untreated [1, 2]: -1.048 log2
Difference (log2), untreated vs GFP (GFP-14-3-3β; [3]): 0.6755 log2

SPTBN1
Difference (log2), PP1 vs untreated [1, 2]: -1.61 log2
Difference (log2), untreated vs GFP (GFP-14-3-3β; [3]): 0.3641 log2

RICTOR
Difference (log2), PP1 vs untreated [1, 2]: -0.7631 log2
Difference (log2), untreated vs GFP (GFP-14-3-3β; [3]): 3.3487 log2

DYNLL1
Difference (log2), PP1 vs untreated [1, 4]: -2.451 log2
Difference (log2), untreated vs GFP (GFP-14-3-3β; [5]): 3.684 log2

DNAJA2
Difference (log2), PP1 vs untreated [1, 8]: 0.6145 log2
Difference (log2), untreated vs GFP (GFP-14-3-3β; [9]): -1.855 log2

PNN
Difference (log2), PP1 vs untreated [1, 6]: -0.4869 log2
Difference (log2), untreated vs GFP (GFP-14-3-3β; [7]): 2.978 log2

NONO
Difference (log2), PP1 vs untreated [1, 2]: -0.8439 log2
Difference (log2), untreated vs GFP (GFP-14-3-3β; [3]): 0.331 log2

ITPR3
Difference (log2), PP1 vs untreated [1, 12]: 0.1762 log2
Difference (log2), untreated vs GFP (GFP-14-3-3β; [13]): -0.007222 log2

KARS
Difference (log2), PP1 vs untreated [1, 6]: -0.3502 log2
Difference (log2), untreated vs GFP (GFP-14-3-3β; [7]): -0.1156 log2

SUPT16H
Difference (log2), PP1 vs untreated [1, 12]: 0.1332 log2
Difference (log2), untreated vs GFP (GFP-14-3-3β; [13]): 0.2233 log2

MYO5C
Difference (log2), PP1 vs untreated ([1]; PP1 vs untreated, label-free quantification): 0.9874 log2
Difference (log2), untreated vs GFP (GFP-14-3-3β; untreated vs GFP, label-free quantification): -0.7461 log2

DDX60
Difference (log2), PP1 vs untreated [1, 10]: 1.555
Difference (log2), untreated vs GFP (GFP-14-3-3β; [11]): -0.05993

GEMIN5
Difference (log2), PP1 vs untreated [1, 10]: 1.609
Difference (log2), untreated vs GFP (GFP-14-3-3β; [11]): -0.2087

DENND4A
Difference (log2), PP1 vs untreated [1, 4]: -5.672 log2
Difference (log2), untreated vs GFP (GFP-14-3-3β; [5]): 5.3156 log2

GAPDH
Difference (log2), PP1 vs untreated [1, 4]: -4.245 log2
Difference (log2), untreated vs GFP (GFP-14-3-3β; [5]): 0.2696 log2

MARK2
Difference (log2), PP1 vs untreated [1, 4]: -2.124 log2
Difference (log2), untreated vs GFP (GFP-14-3-3β; [5]): 5.827 log2

MKI67
Difference (log2), PP1 vs untreated [1, 12]: 0.1166 log2
Difference (log2), untreated vs GFP (GFP-14-3-3β; [13]): 1.0535 log2
